Source: BindingDB's records for doi:10.7270/Q2ZC8184 (Nmmlsc, 2010)

Each compound was assayed against Glutathione S-transferase class-mu 26 kDa isozyme (Schistosoma japonicum, UniProt P08515) (assay: GST–glutathione bead interaction interference profiling – biochemical, multiplex beads, flow cytometry, profiling panel (AID 1769)).
Chain of Glutathione S-transferase class-mu 26 kDa isozyme (P08515 2-218 limits assumed): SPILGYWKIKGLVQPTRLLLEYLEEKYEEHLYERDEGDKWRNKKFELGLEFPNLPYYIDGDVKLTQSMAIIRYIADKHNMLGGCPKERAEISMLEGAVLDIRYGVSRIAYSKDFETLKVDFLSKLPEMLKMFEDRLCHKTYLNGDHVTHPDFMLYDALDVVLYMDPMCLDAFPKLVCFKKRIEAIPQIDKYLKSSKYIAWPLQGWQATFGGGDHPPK
Work on `CCn1cc(C(=O)O)c(=O)c2cc(F)c(N=NCc3ccccc3[N+](=O)[O-])cc21` [SMR000171611] yielded an EC50 of 2.67 µM.
Compound `NC(=S)NNC1=c2cc(F)c(F)cc2=NC1=O` [MLS000589334] has an EC50 of 15.6 µM.
For `CCNC(=S)NN=C1C(=O)Nc2ccc([N+](=O)[O-])cc21` [MLS000773526], the EC50 was 1.93 µM.
For `COc1cc(CN=Nc2ncnc3sc4c(c23)CCC4)ccc1O` [SMR000242188], the EC50 was 14.5 µM.
`Cc1cc(N=NCc2ccc(O)cc2O)nc(-n2nc(C)cc2C)n1` [(4E)-4-[[2-[2-(3,5-dimethylpyrazol-1-yl)-6-methyl-pyrimidin-4-yl]hydrazinyl]methylidene]-3-oxidanyl-cyclohexa-2,5-dien-1-one] gave an EC50 of 0.831 µM.
For `COc1cc(CN=Nc2nc(C)nc3c2cnn3-c2ccccc2)ccc1O` [(4E)-2-methoxy-4-[[(6-methyl-1-phenyl-4-pyrazolo[3,4-d]pyrimidinyl)hydrazo]methylidene]-1-cyclohexa-2,5-dienone], the EC50 was 0.638 µM.
`COc1ccc(N=CCc2nc(SC)nnc2C)cc1` [(4-methoxyphenyl)-[(E)-2-[6-methyl-3-(methylthio)-1,2,4-triazin-5-yl]vinyl]amine] was tested, and the EC50 was 2.76 µM.
Compound `CC(C)NC(=S)NN=C1C(=O)Nc2ccc([N+](=O)[O-])cc21` [1-[(5-nitro-2-oxidanylidene-indol-3-yl)amino]-3-propan-2-yl-thiourea] has an EC50 of 1.43 µM.
In the case of `CC(N=Nc1ccc(S(N)(=O)=O)cc1[N+](=O)[O-])c1ccc2c(c1)OCO2` (stereo not drawn), the EC50 is reported as 1.4 µM.
`COc1ccc(-c2csc(-c3c(O)cn(C(C)C)c3N)n2)cc1OC` [5-amino-4-[4-(3,4-dimethoxyphenyl)-1,3-thiazol-2-yl]-1-propan-2-yl-2H-pyrrol-3-one] was tested, and the EC50 was 87.3 µM.
`CCN(c1ccc(NC=C2C(=O)N(Cc3ccc(OC)cc3)C(=O)c3ccccc32)cc1)C(C)C` [(4E)-4-[[[4-[ethyl(propan-2-yl)amino]phenyl]amino]methylidene]-2-[(4-methoxyphenyl)methyl]isoquinoline-1,3-dione] was tested, and the EC50 was 0.249 µM.
Compound `O=C(Cc1ccccc1)NCC(=O)N/N=C1\C(=O)N(Cc2ccc3c(c2)OCO3)c2ccccc21` [MLS000587449] has an EC50 of 12 µM.
Work on `CCOC1=CC(=Cc2sc(=O)[nH]c2N)C=CC1=O` yielded an EC50 of 2.47 µM.
Work on `O=c1[nH]c(=O)c2nnc(N=NCc3ccc(O)cc3)nc2[nH]1` [3-[2-[(4-oxidanylidenecyclohexa-2,5-dien-1-ylidene)methyl]hydrazinyl]-5H-pyrimido[4,5-e][1,2,4]triazine-6,8-dione] yielded an EC50 of 3.79 µM.
Compound `Cc1nc(N=NCc2ccc(O)cc2)c2cnn(-c3ccccc3)c2n1` [4-[[(6-methyl-1-phenyl-4-pyrazolo[3,4-d]pyrimidinyl)hydrazo]methylidene]-1-cyclohexa-2,5-dienone] has an EC50 of 3.58 µM.
`CCOc1ccc2c(c1)C(=NN=C(N)N)C(=O)N2C` [SMR000207554] showed an EC50 of 25.6 µM.
With `CN1C(=O)/C(=C2/C(=O)Nc3ccccc32)NC1=S` [SMR000198608] the EC50 was 13.4 µM.
For `O=c1[nH]c(N=NCc2ccc(O)cc2)nc2ccccc12` [MLS000571412], the EC50 was 7.68 µM.
Compound `CCn1cc(C(=O)O)c(=O)c2cc(F)c(N=NCc3ccccc3)cc21` [1-Ethyl-6-fluoro-4-oxo-7-{N'-[1-phenyl-meth-(E)-ylidene]-hydrazino}-1,4-dihydro-quinoline-3-carboxylic acid] has an EC50 of 3.88 µM.
Compound `NC(=S)NNC1=c2cc(Br)cc(Br)c2=NC1=O` [1-[[5,7-bis(bromanyl)-2-oxidanylidene-indol-3-yl]amino]thiourea] has an EC50 of 69.1 µM.
For `Oc1ccc2ccccc2c1CN=Nc1nnc(-c2ncc[nH]2)c2ccccc12` [SMR000151639], the EC50 was 1.95 µM.
For `Cc1ccc(O)c(/N=C/C2=CC(Cc3ccccc3)C=C([N+](=O)[O-])C2=O)c1` (stereo not drawn) [(6E)-6-[[(5-methyl-2-oxidanyl-phenyl)amino]methylidene]-2-nitro-4-(phenylmethyl)cyclohexa-2,4-dien-1-one], the EC50 was 8.29 µM.
`COC(=O)c1cc(NC(=O)c2cccc(Cl)c2)c(=O)oc1CC=Nc1cc(C)cc(C)c1` [5-[(3-chlorobenzoyl)amino]-2-[(E)-2-(3,5-dimethylanilino)vinyl]-6-keto-pyran-3-carboxylic acid methyl ester] was tested, and the EC50 was 0.567 µM.
